# Source: paper PMC7220823 (Chemistry (Weinheim an der Bergstrasse, Germany), 2020)
# Experiments:
# [1] = parent nucleosides, from previous publications; cited from earlier work
# DncV = DncV (Vibrio cholerae serotype O1, UniProt Q9KVG7); assay: DncV-mediated CDN synthesis, kinetics by HPLC; type: biochemical
# rocR = rocR (Pseudomonas aeruginosa, UniProt Q9HX69); assay: rocR-mediated CDN hydrolysis monitored by HPLC; type: biochemical, P. aeruginosa; details: 100 nM rocR, 10 μM CDN
# [2] = 500 μM NTP, 37 °C, HPLC, CIAP-quenched, mean ± SD
# Sequence of DncV (Q9KVG7 whole entry): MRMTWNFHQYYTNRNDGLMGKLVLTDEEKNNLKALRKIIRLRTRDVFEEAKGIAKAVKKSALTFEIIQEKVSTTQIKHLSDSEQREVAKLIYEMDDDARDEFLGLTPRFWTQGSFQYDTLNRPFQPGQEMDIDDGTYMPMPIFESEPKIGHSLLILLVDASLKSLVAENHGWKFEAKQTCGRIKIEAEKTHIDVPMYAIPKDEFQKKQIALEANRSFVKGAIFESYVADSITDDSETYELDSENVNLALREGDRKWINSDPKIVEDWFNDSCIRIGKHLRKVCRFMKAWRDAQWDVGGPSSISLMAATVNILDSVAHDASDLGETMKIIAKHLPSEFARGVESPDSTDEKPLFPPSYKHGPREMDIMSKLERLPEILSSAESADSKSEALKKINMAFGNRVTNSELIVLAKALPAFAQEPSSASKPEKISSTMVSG
# Sequence of rocR (Q9HX69 whole entry): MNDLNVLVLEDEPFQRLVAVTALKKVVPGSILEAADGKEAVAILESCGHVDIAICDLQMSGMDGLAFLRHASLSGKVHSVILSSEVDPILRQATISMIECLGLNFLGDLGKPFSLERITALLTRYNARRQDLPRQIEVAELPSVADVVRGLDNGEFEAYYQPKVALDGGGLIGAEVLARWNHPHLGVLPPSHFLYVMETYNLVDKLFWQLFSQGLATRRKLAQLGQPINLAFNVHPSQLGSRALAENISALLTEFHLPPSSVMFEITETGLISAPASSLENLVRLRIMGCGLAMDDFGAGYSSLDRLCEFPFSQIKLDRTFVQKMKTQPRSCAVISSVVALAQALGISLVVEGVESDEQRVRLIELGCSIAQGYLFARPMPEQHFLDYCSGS
Structure (SMILES),ε [1] [M⁻¹ cm⁻¹],λabs^max [1] [nm],λem^max [1] [nm],ϕ (emission quantum yield) [1],ϕε [1],"k1 (formation of first phosphodiester linkage, S to I1) (DncV; [2])",k2 (cyclization of intermediate I1 to product CDN) (DncV; [2]),k3 (degradation of intermediate pppNpN to pNpN) (DncV; [2]),k2/k3 (DncV; product formation versus degradation of the intermediate),time to complete cleavage by rocR (rocR) [min],k1 (enzyme/substrate association) (rocR; mean ± SD) [M⁻¹ s⁻¹],k2 (cleavage reaction) (rocR; mean ± SD) [s⁻¹],k−1 (enzyme/substrate dissociation) (rocR; mean ± SD) [s⁻¹]
Nc1nc2c([C@@H]3O[C@H](CO)[C@@H](O)[C@H]3O)snc2c(=O)[nH]1 [^tzG],4870,333,459,2.5×10^−1,1203,–,–,–,–,–,–,–,–
Nc1nc2c(ncn2[C@@H]2O[C@@H]3COP(=O)(O)O[C@H]4[C@@H](O)[C@H](n5cnc6c(=O)[nH]c(N)nc65)O[C@@H]4COP(=O)(O)O[C@H]3[C@H]2O)c(=O)[nH]1 [c-di-GMP],–,–,–,–,–,(7.1 ±2.3) ×10^−6 μM^−1s^−1,(7.4±2.1) ×10^−2 s^−1,(6.4±0.3) ×10^−4 s^−1,116,~3,3.96e+06 ± 70000,0.76 ± 0.03,1.15 ± 0.21
